Here are results for six compounds from patent US11739122B2, “Glycopeptide antibiotic compounds, methods for producing the same, and uses thereof” (Academia Sinica, priority 2019, dated 2023).

Data set [1] relates to A. baumannii ATCC 19606. Briefly: In vivo efficacy, intranasal A. baumannii infection. Also noted: species or system mice. To be noted: BAL fluid, 24 hours post-inoculation; 24 and kanamycin 30, amikacin 15 mgkg^−1. The method, then: In Vivo Efficacy of r6,N-Acyl-Glc Tei Analogs
Female C57BL/6 mice (6 weeks of age; about 16-19 g, 3-5 mice per group) were intraperitoneally inoculated with 300 μL of MRSA ATCC 700787 suspension (about 10^7 CFUmL^−1). For intranasal A. baumannii (ATCC 19606) inoculation, mice were anesthetized, and inoculated intranasally with about 10^7-10^8 CFUmL^−1 A. baumannii in 50 μL of PBS. Treatments were started 1 hour after the bacterial challenge. The dose administration to mice was set as follows: teicoplanin (1) or r6,C8-Tei analog (14) 20 mgkg^−1 was intraperitoneally injected to MRSA-infected mice; amikacin (15 mgkg^−1), teicoplanin (1) (30 mgkg^−1), kanamycin (30 mgkg^−1) or r1,Me2-r6,guanidino-C8 analog (24) (30 mgkg^−1) was intraperitoneally injected to AB-infected mice. To assess bacteraemia, the test animals were sacrificed to collect 1 mL of peritoneal fluid (PF) for MRSA counting or the lungs were lavaged to collect 0.6 mL bronchoalveolar lavage (BAL) fluid for A. baumannii counting.
For AB (ATCC 19606), female C57BL/6 mice were first anesthetized by intraperitoneal injection of zoletil and then intranasally inoculated with 50 μL of bacteria in a PBS solution (about 10^7-10^8 CFUmL^−1). The treatment started 1 hour post-infection with a single dose of compound 24 (30 mgkg^−1), compound 1 (30 mgkg^−1), amikacin (15 mgkg^−1), or kanamycin (30 mgkg^−1), where saline/compound 1 and amikacin/kanamycin respectively served as negative and positive controls. To assess the density of bacteraemia, the lungs of mice were lavaged to collect 0.6 mL bronchoalveolar lavage (BAL) fluid from each mouse at 24 hours post-inoculation. For saline/compound 1 treated controls, the bacterial load was counted (about 4 log CFUmL^−1, FIG. 4B), where the bacterial load was reduced by 0.5 or 1 log CFUmL^−1 with the treatment of amikacin/kanamycin or compound 24, respectively.

Data set [2] concerns A. baumannii ATCC 19606. Briefly: MIC, broth microdilution. In kind it is cell-based, Acinetobacter baumannii. The method, then: (§1) Determination of Minimal Inhibitory Concentration (MIC) for Vancomycin, Teicoplanin and Tei-Analogs Versus Selected Strains
(§2) MICs were determined by the broth microdilution method. Specifically, 12 Colonies of the test strain were picked up from 18-24 hour agar cultures and freshly inoculated into broth mediums until reaching the turbidity of a 0.5 McFarland standard. The broth culture was adjusted with broth medium to approximately 1×10^8 CFUmL^−1. […] The plates were incubated in 37° C. for 18-24 hours and monitored for the wells of the positive control, where cells grew, and the wells of the negative control, where wells should not grow. The MIC value was determined for the concentration of a test compound, at which there was no visible growth in the well.

Data set [3] deals with MRSA ATCC BAA-38. In words: MIC, broth microdilution. The class given is cell-based, Staphylococcus aureus. To be noted: MRSA ATCC BAA-38. The method, then: as §1, §2
For orientation: Dilution methods test growth across graded concentrations, often in twofold steps.

Data set [4] deals with MRSA ATCC 43300. In words: MIC, broth microdilution. The class given is cell-based, Staphylococcus aureus. To be noted: MRSA ATCC 43300. The method, then:
as §1, §2

In data set [5] the test system is S. aureus ATCC 29213. Briefly: MIC, broth microdilution. In kind it is cell-based, Staphylococcus aureus. To be noted: SA ATCC 29213. The method, then:
as §1, §2

Data set [6] relates to MRSA ATCC BAA-39. Briefly: MIC, broth microdilution. In kind it is cell-based, Staphylococcus aureus. To be noted: MRSA ATCC BAA-39. As for the experimental part: as §1, §2
The subject of data set [7] is MRSA ATCC 700698 hVISA. In words: MIC, broth microdilution. The class given is cell-based, Staphylococcus aureus. To be noted: MRSA ATCC 700698 hVISA. As for the experimental part: as §1, §2
Data set [8] has as its system MRSA ATCC 700789 VRSA. In words: MIC, broth microdilution. In kind it is cell-based, Staphylococcus aureus. To be noted: MRSA ATCC 700789 VRSA. As for the experimental part:
as §1, §2

Data set [9] relates to MRSA ATCC 700787 VRSA. In words: MIC, broth microdilution. To be noted: MRSA ATCC 700787 VRSA. The class given is cell-based, Staphylococcus aureus. As for the experimental part:
as §1, §2

Data set [10] concerns MRSA ATCC BAA-44. Briefly: MIC, broth microdilution. In kind it is cell-based, Staphylococcus aureus. To be noted: MRSA ATCC BAA-44. The method, then: as §1, §2
In data set [11] the test system is VRE ATCC 700425 (vanC). Briefly: MIC, broth microdilution. In kind it is cell-based, enterococci. To be noted: VRE ATCC 700425 (vanC). The method, then:
as §1, §2

Data set [12] concerns VRE ATCC 700802 (vanB). Briefly: MIC, broth microdilution. In kind it is cell-based, enterococci. To be noted: VRE ATCC 700802 (vanB). As for the experimental part: as §1, §2
Data set [13] relates to VRE ATCC 700221 (vanA). Briefly: MIC, broth microdilution. In kind it is cell-based, enterococci. To be noted: VRE ATCC 700221 (vanA). The method, then:
as §1, §2

The subject of data set [14] is E. faecalis ATCC 29302. In words: MIC, broth microdilution. In kind it is cell-based. To be noted: EF ATCC 29302. The method, then: as §1, §2
In data set [15] the test system is HEK293T cells. In words: Alamar Blue cell viability assay. The class given is cell-based, human. To be noted: up to 100 μgmL^−1; 2 and 24 h. The method, then: The Alamar Blue (AB) assay, which includes a redox indicator that changes color or emits fluorescence in response to a metabolic activity, was used to assess in vitro mammalian cell cytotoxicity (human embryonic kidney cells (HEK293T)) upon an antibiotic treatment. 2×10^5 cellsmL^−1 were allowed to adhere on 96-well plates overnight at 37° C. in a humidified incubator (5% CO2 atmosphere). Tested compounds were dissolved in 50% DMSO to make 1 mgmL^−1 of a stock solution. Cells were separately aliquoted with 5 μL of a test compound (final concentration: 100 μgmL^−1) and incubated. PBS and 50% DMSO, which was used to dissolve compounds, served as a control. Cell viability was triplicated and assessed at 2 and 24 hour time points for each test compound, on which the measurements followed the manufacturer protocol.
On the technique in general: Alamar Blue is a resazurin reagent that responds to reducing activity.

In brackets after ≈: the same amount, converted by molar mass. Several values for one entry are separate records, joined by “and”; a condition that tells them apart may be missing. Equal values may be shown once. Where a name gives a salt, the structure may show the parent alone. Read-outs that look alike come from different tables or passages of the source. Bounds are passed on as bounds.

Usually MIC stands for the smallest concentration in the dilution series that meets the test's criterion for growth inhibition. `NC[C@H]1O[C@H](O[C@H]2[C@H](O)[C@@H](O[C@H]3O[C@H](CO)[C@@H](O)[C@H](N)[C@H]3O)[C@H](N)C[C@@H]2N)[C@H](O)[C@@H](O)[C@@H]1O` [kanamycin sulfate, reference compound]: the “bacterial load reduced by” value in data set [1] was 0.5 log CFUmL^−1. Moreover, the MIC is 25 µM and 14.6 µg/mL in data set [2] (Acinetobacter baumannii, ATCC19606); 14.6 µg/mL in data set [2] (Acinetobacter baumannii, ATCC19606, read-out: MIC on AB).
As for `CC(=O)N[C@H]1[C@H](O[C@@H]2c3ccc(c(Cl)c3)Oc3cc4cc(c3O)Oc3ccc(cc3Cl)C[C@H]3NC(=O)[C@H](N(C)C)c5ccc(O)c(c5)Oc5cc(O)cc(c5)[C@H](NC3=O)C(=O)N[C@H]4C(=O)N[C@H]3C(=O)N[C@@H]2C(=O)N[C@H](C(=O)O)c2cc(O)cc(O)c2-c2cc3ccc2O)O[C@H](CO)[C@@H](O)[C@@H]1O` [Compound 10, r1,Me2-6,GlcNAc Tei-pseudoaglycone], the minimum inhibitory concentration (MIC) was 0.25 µg/mL (≈ 0.175 µM) in data set [3]; 0.25 µg/mL (≈ 0.175 µM) in data set [4]; 0.25 µg/mL (≈ 0.175 µM) in [5]; 0.125 µg/mL (≈ 0.0874 µM) in [6]; 1 µg/mL (≈ 0.699 µM) in [7]; 2 µg/mL (≈ 1.4 µM) in data set [8]. Moreover, the minimal inhibitory concentration (MIC) in data set [9] was 0.5 µg/mL (≈ 0.35 µM); in [10] it was 0.125 µg/mL (≈ 0.0874 µM); in data set [11], 4 µg/mL (≈ 2.8 µM); in [12] it was 4 µg/mL (≈ 2.8 µM); in data set [13], >128 µg/mL; in data set [14], 2 µg/mL (≈ 1.4 µM). In addition, the MIC in data set [2] (A. baumannii ATCC 19606, Table 3, first figure of cell) is > 200 µM; in data set [2] (A. baumannii ATCC 19606, Table 3, second figure of cell), > 285.67 µg/mL.
As for `N[C@H]1C(=O)N[C@@H]2Cc3ccc(c(Cl)c3)Oc3cc4cc(c3O)Oc3ccc(cc3Cl)[C@@H](O[C@@H]3O[C@H](CO)[C@@H](O)[C@H](O)[C@H]3NC(=O)CCCCc3ccc(F)cc3)[C@@H]3NC(=O)[C@H](NC(=O)[C@@H]4NC(=O)[C@@H](NC2=O)c2cc(O)cc(c2)Oc2cc1ccc2O)c1ccc(O)c(c1)-c1c(O)cc(O)cc1[C@@H](C(=O)O)NC3=O` [Compound 18], the MIC in data set [3] was 0.016 µg/mL (≈ 0.0104 µM); in [4], 0.031 µg/mL (≈ 0.0202 µM); in data set [5], 0.063 µg/mL (≈ 0.041 µM); in data set [6] it was 0.063 µg/mL (≈ 0.041 µM); in [7], 0.016 µg/mL (≈ 0.0104 µM); in data set [8], 0.5 µg/mL (≈ 0.325 µM). The MIC was 0.125 µg/mL (≈ 0.0813 µM) in data set [9]; 0.016 µg/mL (≈ 0.0104 µM) in [10]; 1 µg/mL (≈ 0.65 µM) in [11]; 0.25 µg/mL (≈ 0.163 µM) in data set [12]; >16 µg/mL in [13]; 0.25 µg/mL (≈ 0.163 µM) in data set [14]. Further, the “cytotoxicity to HEK293T cells” value in [15] was “did not exhibit any observable toxicity”.
Take `N[C@H]1C(=O)N[C@@H]2Cc3ccc(c(Cl)c3)Oc3cc4cc(c3O)Oc3ccc(cc3Cl)[C@@H](O[C@@H]3O[C@H](CO)[C@@H](O)[C@H](O)[C@H]3NC(=O)CCCCCCCCCCCO)[C@@H]3NC(=O)[C@H](NC(=O)[C@@H]4NC(=O)[C@@H](NC2=O)c2cc(O)cc(c2)Oc2cc1ccc2O)c1ccc(O)c(c1)-c1c(O)cc(O)cc1[C@@H](C(=O)O)NC3=O` [Compound 19]: the MIC in [3] came out at 0.031 µg/mL (≈ 0.0199 µM); in [4], 0.063 µg/mL (≈ 0.0404 µM); in data set [5], 0.016 µg/mL (≈ 0.0103 µM); in data set [6], 0.016 µg/mL (≈ 0.0103 µM); in [7], 0.016 µg/mL (≈ 0.0103 µM); in data set [8], 0.25 µg/mL (≈ 0.16 µM). Moreover, the minimal inhibitory concentration (MIC) in data set [9] was 0.016 µg/mL (≈ 0.0103 µM); in data set [10], 0.016 µg/mL (≈ 0.0103 µM); in data set [11] it was 1 µg/mL (≈ 0.642 µM); in [12] it was 0.5 µg/mL (≈ 0.321 µM); in data set [13], >16 µg/mL; in data set [14], 0.25 µg/mL (≈ 0.16 µM).
As to `NCC[C@H](O)C(=O)N[C@@H]1C[C@H](N)[C@@H](O[C@H]2O[C@H](CN)[C@@H](O)[C@H](O)[C@H]2O)[C@H](O)[C@H]1O[C@H]1O[C@H](CO)[C@@H](O)[C@H](N)[C@H]1O` [amikacin], the “bacterial load reduced by” value in [1] is listed as 0.5 log CFUmL^−1.
Regarding `C#CCCC(=O)N[C@H]1[C@H](O[C@@H]2c3ccc(c(Cl)c3)Oc3cc4cc(c3O)Oc3ccc(cc3Cl)C[C@H]3NC(=O)[C@H](N)c5ccc(O)c(c5)Oc5cc(O)cc(c5)[C@H](NC3=O)C(=O)N[C@H]4C(=O)N[C@H]3C(=O)N[C@@H]2C(=O)N[C@H](C(=O)O)c2cc(O)cc(O)c2-c2cc3ccc2O)O[C@H](CO)[C@@H](O)[C@@H]1O` [Compound 13], the MIC in [3] was 0.063 µg/mL (≈ 0.0437 µM); in data set [4], 0.125 µg/mL (≈ 0.0868 µM); in data set [5], 0.063 µg/mL (≈ 0.0437 µM); in [6], 0.063 µg/mL (≈ 0.0437 µM); in data set [7] it was 0.063 µg/mL (≈ 0.0437 µM); in [8], 1 µg/mL (≈ 0.694 µM). The minimum inhibitory concentration (MIC) in data set [9] is 0.063 µg/mL (≈ 0.0437 µM); in data set [10] it was 0.031 µg/mL (≈ 0.0215 µM); in [11], 4 µg/mL (≈ 2.78 µM); in data set [12], 4 µg/mL (≈ 2.78 µM); in data set [13], >16 µg/mL; in data set [14] it was 0.5 µg/mL (≈ 0.347 µM).
